From patent publication US9040106B2, “Pharmaceutical composition for preventing or treating diabetic erectile dysfunction comprising C3G or extract of mulberry containing C3G” (CATHOLIC UNIVERSITY INDUSTRY-ACADEMIC COOPERATION FOUNDATION, priority 2011, dated 2015)

Columns and labels:
Format in all cases: in vivo, Sprague-Dawley rats
nNOS = nNOS protein expression, Western blot of corporal tissue; conditions: C3G treatment group versus DM group, corrected against actin
Experimental: (§1) Thirty-six 12-wk-old male Sprague-Dawley rats were treated under a protocol approved by the Institutional Animal Care and Use Committee (CUMC-2010-0137-02) and handled according to NIH guidelines. Rats were divided equally into three groups (n=12 in each): control, diabetes (DM), and diabetes with C3G concentration materials treatment (DM+C3G). All rats in the DM and DM+C3G groups received a single intraperitoneal injection of streptozotosin (50 mg/kg). Blood glucose and body weight were monitored weekly and significant diabetes (serum glucose >250 mg/dl) was confirmed in all rats within 1 wk. The diabetic serum level was maintained throughout the experiment. Four weeks after the induction of diabetes, rats in the DM+C3G group were treated with daily oral C3G (10 mg/kg) dissolved in water for 8 weeks. […]
(§2) The homogenized buffer solution was placed on ice for 15 min and centrifuged at 4° C. for 13,000 rpm for 15 minutes. […] 30 μg of the quantitative protein was denatured at 95° C. for 5 min and electrophoresis was performed on a 12% discontinuous sodium dodecylsulfate-polyacrylamide gel (SDS-PAGE). […] Chemiluminescence was detected using enhanced chemiluminescence Western blotting detection reagents and densitometric assessment of the bands on the autoradiogram was performed using Bio1D software (version 97; Vilber Lourmat, France). […]

[1] = test system: smooth muscle and collagen in corporal tissue; assay: Masson's trichrome staining of cavernosal tissue
Experimental: (§3) Thirty-six 12-wk-old male Sprague-Dawley rats were treated under a protocol approved by the Institutional Animal Care and Use Committee (CUMC-2010-0137-02) and handled according to NIH guidelines. Rats were divided equally into three groups (n=12 in each): control, diabetes (DM), and diabetes with C3G concentration materials treatment (DM+C3G). All rats in the DM and DM+C3G groups received a single intraperitoneal injection of streptozotosin (50 mg/kg). Blood glucose and body weight were monitored weekly and significant diabetes (serum glucose >250 mg/dl) was confirmed in all rats within 1 wk. The diabetic serum level was maintained throughout the experiment. Four weeks after the induction of diabetes, rats in the DM+C3G group were treated with daily oral C3G (10 mg/kg) dissolved in water for 8 weeks. After the 12 weeks, intracavernosal pressure measurement (ICP) was performed, and after ICP measurement, the skin-denuded middle part of the penile shafts was cut and fixed overnight in 10% formalin, washed, and stored in 70% alcohol at 4° C. until processed for paraffin-embedded tissue sectioning (5 μm). […].
After ICP, the skin denuded middle part of the penile shafts were fixed overnight in 10% formalin, washed, and stored in 70% alcohol at 4° C. until processed for paraffin-embedded tissue sectioning (5 μm). The cavernosal tissue was obtained for the Masson's trichrome staining. After staining, the color distribution of the muscle tissue was approximated by using the Adobe Photoshop CS 8.0. After the entire color distribution of the image was calculated, we selected the muscle tissue distribution, expressed as the color red. There were somewhat standard deviations in our calculation because of color overlays and ambiguity of the color spectrum of the muscle tissues.

SOD = SOD protein expression, Western blot of corporal tissue; conditions: DM group treated with C3G
Experimental: as §1
The homogenized buffer solution was placed on ice for 15 min and centrifuged at 4° C. for 13,000 rpm for 15 minutes. […] 30 μg of the quantitative protein was denatured at 95° C. for 5 min and electrophoresis was performed on a 12% discontinuous sodium dodecylsulfate-polyacrylamide gel (SDS-PAGE). […] Chemiluminescence was detected using enhanced chemiluminescence Western blotting detection reagents and densitometric assessment of the bands on the autoradiogram was performed using Bio1D software (version 97; Vilber Lourmat, France).

eNOS = eNOS protein expression, Western blot of corporal tissue; conditions: C3G treatment group versus DM group, corrected against actin
Experimental: as §1, §2

[2] = test system: rat model of diabetic erectile dysfunction; assay: Intracavernosal pressure measurement on electrical stimulation of the cavernosal nerve; conditions: diabetic rats, daily oral C3G 10 mg/kg for 8 weeks
Experimental: as §3
Rats were anaesthetized with an intraperitoneal injection of 0.2 mL tiletamine (Zoletil®). […] Both mean arterial pressure (MAP) and ICP were continuously monitored during electrical stimulation. […]

[3] = test system: 8-OHdG in corpora tissues; assay: Measurement of 8-OHdG (oxidative stress) by ELISA; conditions: diabetic rats, daily oral C3G 10 mg/kg for 8 weeks; DM 0.917±0.247, normal 0.140±0.13
Experimental: as §1
Oxidative stress in corpora tissues was evaluated by quantifying the levels of 8-hydroxy-2-deoxyguanosine (8-OHdG) as oxidatively modified DNA. […] Levels of 8-OHdG were measured with a DNA oxidation kit (Highly Sensitive 8-OHdG Check ELISA; Japan Institute for the Control of Aging, Fukuroi, Japan) according to the manufacturer's protocol. […] After the final color was developed with the addition of 3,3′,5,5′-tetramethylbenzidine, absorbance was measured at 450 nm. Tissue sample concentration was calculated from a standard curve and was corrected for DNA concentration.

[4] = Serum glucose of streptozotosin-induced diabetic rats; conditions: DM+C3G group
Experimental: as §3

[5] = test system: apoptosis in corporal tissue; assay: TUNEL assay for apoptosis; conditions: diabetic rats, daily oral C3G 10 mg/kg for 8 weeks; DM 39.6±4.6, control 15.3±3.0
Experimental: as §1
To assess apoptosis in the corpora tissues, the terminal deoxynucleotidyl transferase mediated dUTP nick end labeling (TUNEL) assay was performed using Apop Tag In Situ Apoptosis Detection Kits (Millipore Co., MA, US). […] The number of cells positive for the TUNEL assay was counted and the difference among the groups was assessed. For the count of cells positive for the TUNEL assay, 5 sites were selected randomly from a slide of each group, and the number of cells positive for the TUNEL assay was counted as the average of 5 sites under a light microscope at 400× magnification.

[6] = C3G treatment group versus DM group

With OC[C@H]1O[C@@H](Oc2cc3c(O)cc(O)cc3[o+]c2-c2ccc(O)c(O)c2)[C@H](O)[C@@H](O)[C@@H]1O [C3G, Cyanidin-3-O-β-d-glucopyranoside] the “nNOS protein level (western blot, densitogram)” value (nNOS) was “levels increased”, the “collagen content of corpora tissues” value [1, 6] was “collagen content decreased” and the “smooth muscle content of corpora tissues” value [1, 6] was “smooth muscle content increased”. The muscle/collagen ratio ([1]; diabetic rats, daily oral C3G 10 mg/kg for 8 weeks, DM 10.6±4.6, control 27.3±3.0) was 21.8±1.7, the “SOD expression (western blot)” value (SOD) was “expressed more in the DM group treated with C3G than in the control group” and the “eNOS protein level (western blot, densitogram)” value (eNOS) was “levels increased”. The ICP/MAP ratio ([2]; DM group 0.32 ± 0.06, control 0.77 ± 0.05) was 0.55 ± 0.11, the “Peak ICP” value ([2]; cavernosal nerve stimulation, DM group 35.4 ± 4.5, control 83.3 ± 1.9) was 58.0 ± 4.6 and the “8-OHdG in the corpora tissue by ELISA” value [3] was 0.626±0.423. The Serum glucose ([4]; 4 wk after diabetes induction (start of daily oral C3G 10 mg/kg)) was 462 ± 90 mg/dL, the Serum glucose ([4]; 8 wk, daily oral C3G 10 mg/kg from week 4) was 448 ± 143 mg/dL and the Serum glucose ([4]; 12 wk, daily oral C3G 10 mg/kg for 8 weeks) was 469 ± 163 mg/dL. The Serum glucose ([4]; Pre-DM induction (before C3G treatment)) was 141 ± 13 mg/dL and the “mean apoptotic index ± standard deviation (TUNEL)” value [5] was 21.3±1.7.
